Laboratory results: ChEMBL document CHEMBL1146178, “Synthesis and antiviral activity against tobacco mosaic virus and 3D-QSAR of alpha-substituted-1,2,3-thiadiazoleacetamides” (Bioorg Med Chem Lett, 2006)
pIC50: −log10 of the molar value.

What follows are compounds tested on Tobacco mosaic virus (assay: Antiviral activity against TMV at 500 mg/L).
Assay type: functional

Row | Compound | inhibition at 500 µg/mL
1 | CNC(=O)C(c1csnn1)[S+]([O-])c1ccc(Cl)cc1 (stereo not given) | 31%
2 | CNC(=O)C(Oc1ccc(Br)cc1)c1csnn1 (stereo not given) | 64%
3 | CNC(=O)C(Sc1cc(Cl)ccc1Cl)c1csnn1 (stereo not given) | 0%
4 | CNC(=O)C(Oc1ccccc1Br)c1csnn1 (stereo not given) | 44%
5 | CNC(=O)C(c1csnn1)S(=O)(=O)c1ccc(F)cc1 (stereo not given) | 19%
6 | CNC(=O)C(Oc1ccccc1Cl)c1csnn1 (stereo not given) | 53%
7 | CNC(=O)C(c1csnn1)[S+]([O-])Cc1ccc(Cl)cc1 (stereo not given) | 20%
8 | CNC(=O)C(Sc1nc2nc(C)cc(C)n2n1)c1csnn1 (stereo not given) | 5%
9 | CNC(=O)C(Sc1ccccc1F)c1csnn1 (stereo not given) | 37%
10 | CNC(=O)C(Sc1cc(C)ccc1C)c1csnn1 (stereo not given) | 0%
11 | CNC(=O)C(Sc1ccc(F)cc1)c1csnn1 (stereo not given) | 33%
12 | CNC(=O)C(Oc1cc(C)ccc1Cl)c1csnn1 (stereo not given) | 56%
13 | CNC(=O)C(SCc1ccc(Cl)cc1)c1csnn1 (stereo not given) | 35%
14 | CNC(=O)C(c1csnn1)[S+]([O-])c1ccccc1F (stereo not given) | 19%
15 | CNC(=O)C(c1csnn1)[S+]([O-])c1cc(C)ccc1C (stereo not given) | 0%
16 | CNC(=O)C(Sc1nnc(-c2c(C)nn(C)c2SC)s1)c1csnn1 (stereo not given) | 35%
17 | CNC(=O)C(c1csnn1)S(=O)(=O)c1ccc(OC)cc1 (stereo not given) | 0%
18 | CNC(=O)C(c1csnn1)S(=O)(=O)c1ccccc1F (stereo not given) | 82%
19 | CNC(=O)C(Sc1ccc(Cl)cc1)c1csnn1 (stereo not given) | 42%
20 | CNC(=O)C(c1csnn1)n1cncn1 (stereo not given) | 42%
21 | CNC(=O)C(Oc1ccc2ccccc2c1)c1csnn1 (stereo not given) | 44%
22 | CNC(=O)C(Oc1cccc(C)c1)c1csnn1 (stereo not given) | 5.5%
23 | CNC(=O)C(c1csnn1)S(=O)(=O)Cc1ccc(Cl)cc1 (stereo not given) | 51%
24 | CNC(=O)C(c1csnn1)[S+]([O-])c1ccc(F)cc1 (stereo not given) | 11%
25 | CNC(=O)C(c1csnn1)S(=O)(=O)c1cc(C)ccc1C (stereo not given) | 12%

These compounds were tested on Hepatitis B virus (assay: Antiviral activity against HBV in HepG2 2.2.15 cells assessed as inhibition of HBsAg at 0.6 umol/mL).
Assay type: functional

Row | Compound | Inhibition
26 | CNC(=O)C(Oc1cc(C)ccc1Cl)c1csnn1 (stereo not given) | 88.6%

Each compound was assayed on Hepatitis B virus (assay: Antiviral activity against HBV in HepG2 2.2.15 cells assessed as inhibition of HBeAg at 0.6 umol/mL).
Assay type: functional

Row | Compound | Inhibition
27 | CNC(=O)C(Oc1cc(C)ccc1Cl)c1csnn1 (stereo not given) | 15.5%

These compounds were tested on Hepatitis B virus (assay: Antiviral activity against HBV in HepG2 2.2.15 cells assessed as inhibition of HBsAg at 0.4 umol/mL).
Assay type: functional

Row | Compound | Inhibition
28 | CNC(=O)C(Oc1cc(C)ccc1Cl)c1csnn1 (stereo not given) | 52.9%

The compounds below were run on Hepatitis B virus (assay: Antiviral activity against HBV in HepG2 2.2.15 cells assessed as inhibition of HBeAg at 0.4 umol/mL).
Assay type: functional

Row | Compound | Inhibition
29 | CNC(=O)C(Oc1cc(C)ccc1Cl)c1csnn1 (stereo not given) | 44.2%

These compounds were tested on Hepatitis B virus (assay: Antiviral activity against HBV in HepG2 2.2.15 cells assessed as inhibition of viral DNA synthesis).
Assay type: functional, organism-based

Row | Compound | pIC50
30 | CNC(=O)C(Oc1cc(C)ccc1Cl)c1csnn1 (stereo not given) | 3.40
